Tests used:
[1] = tested on: primary CLL cells; assay: Cytotoxicity, TMRE flow cytometry viability, primary CLL cells (Example II.1); type: cell-based; conditions: Homo sapiens, CLL cell, 6 hours, TMRE positive cells normalized to control, ratio to PF670462, <1 = higher cytotoxicity than PF670462, read-out: Viability of cells, Compound of formula I (100 μM), relative to PF670462 (100 μM), CLL primary cells
[2] = tested on: Maver-1 cells (mantle cell lymphoma); assay: Cytotoxicity, TMRE flow cytometry viability, Maver-1 cells (Example II.1); type: cell-based; conditions: Homo sapiens, Maver1, 24 hours, TMRE positive cells normalized to control, ratio to PF670462, <1 = higher cytotoxicity than PF670462, read-out: Viability of cells, Compound of formula I (100 μM), relative to PF670462 (100 μM), Maver-1 cells (mantle cell lymphoma)
Method: The leukemia and lymphoma-derived cell lines [MEC-1 cell line (derived from chronic lymphocytic leukemia—CLL), Nalm-16 (acute lymphocytic leukemia—ALL), K562 (chronic myeloid leukemia—CML), HL-60 (acute myeloid leukemia—AML), Maver-1 and Mino (mantle cell lymphoma—MCL), BL-41 (Burkitt lymphoma—BL), WSU-NHL (follicular lymphoma—FL), SUDHL (diffuse large B-cell lymphoma—DLBCL)], primary CLL cells and nonmalignant control primary cells were cultured in suspension in flasks under the following conditions: RPMI 1640 medium (Hyclone) supplemented with 10% fetal bovine serum (FBS, Gibco) and 1% penicillin/streptomycin (Life Technologies), 37° C., 5% CO2 and 95% relative humidity, with optimal culture cell density 5×10^6 cells/mL in case of primary cells and 0.5-1×10^6 cells/mL in case of cell lines. The adherent cell lines [A375 (derived from malignant melanoma), MDA-MB-231 and MCF-7 (breast cancer), MIA-PA-CA and PANC1 (pancreatic cancer), PC3 (prostate cancer), OVCAR4 (ovarian cancer) and HEPG2 (hepatocellular carcinoma)] were cultured on plates under the same conditions using RPMI1640 or DMEM medium (Gibco) according to instructions provided by the distributor (DSMZ/ATCC).
Cytotoxicity of compounds of formula I was tested in two models representative for leukemia (primary CLL cells) and lymphoma (Maver-1 cells). The primary CLL cells and Maver-1 cells (MCL-derived) were incubated with inhibitors at 100 μM concentration or corresponding amount of solvent (DMSO, Sigma Aldrich) as 0.1×10^6 cells/200 μl per well in a 96-well plate. Experiments were performed in technical duplicates. Viability of cells was assessed after 6 hours in case of primary CLL cells and after 24 hours in case of Maver-1 cells.
Apoptosis-induced reduction of mitochondrial potential is detected as lower TMRE fluorescence. […] Relative values are presented, showing ratio to the effect of PF670462 (as the closest prior art). Relative value <1 indicates a higher cytotoxicity than PF670462.

Compound	viability at 100 µM [1] [%]	viability at 100 µM [2] [%]
CN1CCC(Cn2cnc(-c3ccc(F)c(Cl)c3)c2-c2ccnc3[nH]ccc23)CC1 [Preparative Example 141, 4-(4-(3-chloro-4-fluorophenyl)-1-((1-methylpiperidin-4-yl)methyl)-1H-imidazol-5-yl)-1H-pyrrolo[2,3-b]pyridine]	43	0
CN(C)[C@H]1CC[C@H](n2cnc(-c3ccc(F)c(Cl)c3)c2-c2ccnc3[nH]ccc23)CC1 [Preparative Example 142, (1R,4r)-4-(4-(3-chloro-4-fluorophenyl)-5-(1H-pyrrolo[2,3-b]pyridin-4-yl)-1H-imidazol-1-yl)-N,N-dimethylcyclohexan-1-amine]	5	0
Fc1ccc(-c2ncn(C3CCCCC3)c2-c2ccnc3[nH]cc(Cl)c23)cc1 [Preparative Example 144, 3-chloro-4-(1-cyclohexyl-4-(4-fluorophenyl)-1H-imidazol-5-yl)-1H-pyrrolo[2,3-b]pyridine]	36	1
CC(c1ccccc1)n1cnc(-c2ccc(F)cc2)c1-c1ccnc2[nH]ccc12 (stereo not drawn) [Preparative Example 146, 4-(4-(4-fluorophenyl)-1-(1-phenylethyl)-1H-imidazol-5-yl)-1H-pyrrolo[2,3-b]pyridine]	16	0
Fc1ccc(-c2ncn(Cc3c[nH]nn3)c2-c2ccnc3[nH]ccc23)cc1 [Preparative Example 153, 4-(1-((1H-1,2,3-triazol-4-yl)methyl)-4-(4-fluorophenyl)-1H-imidazol-5-yl)-1H-pyrrolo[2,3-b]pyridine]	117	87
Fc1ccc(-c2nc(Cl)n(C3CCCCC3)c2-c2ccnc3[nH]ccc23)cc1 [Preparative Example 155, 4-(2-chloro-1-cyclohexyl-4-(4-fluorophenyl)-1H-imidazol-5-yl)-1H-pyrrolo[2,3-b]pyridine]	1	0
CCOC(=O)c1nc(-c2ccc(F)cc2)c(-c2ccnc3[nH]ccc23)n1C1CCCCC1 [Preparative Example 163, ethyl 1-cyclohexyl-4-(4-fluorophenyl)-5-(1H-pyrrolo[2,3-b]pyridin-4-yl)-1H-imidazole-2-carboxylate]	57	10
NC(=O)c1nc(-c2ccc(F)cc2)c(-c2ccnc3[nH]ccc23)n1C1CCCCC1 [Preparative Example 165, 1-cyclohexyl-4-(4-fluorophenyl)-5-(1H-pyrrolo[2,3-b]pyridin-4-yl)-1H-imidazole-2-carboxamide]	0	0
OCc1nc(-c2ccc(F)cc2)c(-c2ccnc3[nH]ccc23)n1C1CCCCC1 [Preparative Example 166, (1-cyclohexyl-4-(4-fluorophenyl)-5-(1H-pyrrolo[2,3-b]pyridin-4-yl)-1H-imidazol-2-yl)methanol]	7	4
CN(C)Cc1nc(-c2ccc(F)cc2)c(-c2ccnc3[nH]ccc23)n1C1CCCCC1 [Preparative Example 169, 1-(1-cyclohexyl-4-(4-fluorophenyl)-5-(1H-pyrrolo[2,3-b]pyridin-4-yl)-1H-imidazol-2-yl)-N,N-dimethylmethanamine]	12	0
Nc1cc(-c2c(-c3ccc(F)cc3)ncn2C2CCCCC2)c2cc[nH]c2n1 [Preparative Example 170, 4-(1-cyclohexyl-4-(4-fluorophenyl)-1H-imidazol-5-yl)-1H-pyrrolo[2,3-b]pyridin-6-amine]	56	6
Fc1ccc(-c2ncn(Cc3ccccc3)c2-c2ccnc3[nH]ccc23)cc1F [Preparative Example 179, 4-(1-benzyl-4-(3,4-difluorophenyl)-1H-imidazol-5-yl)-1H-pyrrolo[2,3-b]pyridine]	1	0
